Where a SMILES comes first, the peptide text is derived from it. [ ]: non-standard residue; d: D form. The star is where a group is joined. ξ: configuration not given here. Dolaproine = CO[C@@H]([C@@H]1CCCN1)[C@@H](C)C(=O)O; X1 = C=CCOC(=O)Nc1ccc(C(OC(=O)*)C(=O)NCC)cc1; Dil = CC[C@H](C)[C@H](NC)[C@@H](CC(=O)O)OC; X2 = C[C@@H](N*)[C@@H](O)c1ccccc1; NMeV = CN[C@H](C(=O)O)C(C)C; ξV = CC(C)C(N)C(=O)O

The nature of series [1]: Body weight and blood chemistry of treated tumor-bearing animals. In kind it is in vivo, mice. The settings on record: dual Pd-NP and C16proMMAE. On the procedure:
(§1) Cell lines and animal models: All animal research was performed in accordance with guidelines from the Institutional Subcommittee on Research Animal Care. HT1080 xenografts were generated by 2 million cells implanted subcutaneously in flanks of 6-8 week old female nu/nu mice (Cox7/MGH) in 50 μl PBS. MC38 syngeneic tumors were formed by intradermal implantation of 2 million cells in 50 μl PBS, in the flanks of 7-12 week old female C57BL/6 mice (JAX), following previously described inoculation protocols.^33 Four blinded caliper measurements per tumor were used to measure tumor size according to the formula V=(width)^2(length)/2; animals were randomly assigned to treatment groups. Experiments build on prior imaging, biodistribution, and longitudinal tumor growth data that likewise guided determination of experimental sample sizes.^5, 30 Treatment began approximately 3 weeks post-implantation once tumors reached an average diameter of 5.5±1.8 mm in the HT1080 model (mean±std. dev.; n=72), and roughly 2 weeks post-implantation in the MC38 model once tumors reached an average diameter of 5.45±1.2 mm (mean±std. dev.; n=14). […] Blood chemistry readouts were measured from plasma collected in heparinized tubes by terminal cardiac puncture under vaporized isoflurane anesthesia, using the MGH Veterinary Clinical Pathology lab and the automated DriChem blood chemistry analyzer (Heska). […]

Series [2] deals with HT1080 fibrosarcoma cancer cells. The series is described as follows: Resazurin-based cytotoxicity assay, 72 h. (Alamar Blue is a resazurin reagent that responds to reducing activity.)
Experimental: In vitro NP characterization: 5,000 cells per well were added to 96-well plates for cytotoxicity assessment; cells were treated after overnight seeding with compound or the appropriate buffer control (drug-free PLGA-PEG NP), and assessed for viability 72 h later using PrestoBlue (Life Technologies) following the manufacturer's protocol.
The subject of series [3] is subcutaneous HT1080 xenograft tumors. The series is described as follows: HT1080 xenograft tumor growth. In kind it is in vivo, nu/nu mice. On the procedure:
as §1

The subject of series [4] is panel of 4 cancer cell lines. The series is described as follows: Cytotoxicity across a panel of cancer cell lines, 72 h. The series is classed as cell-based. The settings on record: prodrug alone, concentrations ≤10 μM.
Series [5] can be described thus: In vitro NP prodrug release in PBS. The settings on record: over 72 h at 37° C. in PBS. The series is classed as physicochemical. On the procedure:
Transmission electron microscopy (TEM) was performed in the Microscopy Core of the Center for Systems Biology/Program in Membrane Biology (MGH). […] Excess solution was blotted, grids were stained with phosphotungstic acid, and then blotted, dried and imaged. In vitro NP prodrug release was performed by incubating in PBS at 37° C., separating NPs using a 30 kDa molecular weight cutoff filter (Millipore Amicon) after 72 h, and measuring flow-through for drug content by absorbance (Nanodrop). NP was dissolved in DMF and also measured for drug content by absorbance. Pd-NP, Alloc2R110 and its nanoformulation, and all Pd compounds were synthesized and characterized as previously described.^5

The subject of series [6] is HT1080-EB3-mApple cells. The series is described as follows: EB3 microtubule comet imaging in live cells. The series is classed as cell-based, human. To be noted: 24 h; for microtubule comets (prevalence and growth speed): individual treatment, 1 μM MMAE or C16proMMAE, 35 μM Pd-NP. On the procedure: Microtubule imaging. EB3 tracking was performed using an FV1000 confocal laser scanning microscope on a 37° C. heated stage, with XLUMPLFLN 20× (NA 1.0) or LUMFLN 60× (NA 1.1) water-immersion objectives, 1-10× digital zoom, 559-nm diode laser, and BA575-620 emission filter (all Olympus America). […] EB3 tracks were automatically identified and analyzed from time-lapse datasets using u-track software,^35 with tuning of maximum gap number and minimum frame number across datasets to account for differences in image quality; ambiguous and spurious tracks and artifacts were excluded according to requirements for directional continuity (directional persistence as net displacement/path length>0.8) and movement (value>3 pixels). Speed was determined between frames in each track and averaged for each track by computing the mean of the middle 80% of between-frame values. Track overlay figures were produced using a custom python script. Averaged track speeds excluded outliers falling more than 1.5× the interquartile range for each biological replicate.

For series [7], the system named is MC38 murine colon adenocarcinoma tumors. The series is described as follows: MC38 syngeneic tumor growth. The series is classed as in vivo, C57BL/6 mice. To be noted: combined with Pd-NP. On the procedure:
as §1

Series [8] in a line: Nano-encapsulation (loading) efficiency, PLGA-PEG nanoprecipitation. The series is classed as physicochemical. To be noted: PLGA-PEG polymeric micellar formulation. On the procedure:
Initial experiments determined up to 1 mg of C16 prodrug could be used with the same polymer composition with no detectable loss in loading efficiency. For fluorescence-based imaging and flow-cytometric detection of NP uptake, PLGA-BODIPY630 was used instead of PLGA (described previously).^5 NP drug and Pd compound loadings were determined by absorbance (Nanodrop spectrophotometer), interpolation from a standard curve (R^2>0.99) after 1:10 dilution in DMF. Size and zeta potential measurements were performed using dynamic light scattering (Malvern Zetasizer). Prodrug loading efficiency is defined as the fraction of initial drug used in the nano-precipitation reaction that was successfully encapsulated and recovered in final NP product.

The conditions of series [9]: cited from earlier work.

A word on the IC50: it is the concentration that gives 50% inhibition. For `C=CCOC(=O)Nc1ccc(C(OC(=O)N(C)[C@H](C(=O)NC(C(=O)N(C)[C@@H]([C@@H](C)CC)[C@@H](CC(=O)N2CCC[C@H]2[C@H](OC)[C@@H](C)C(=O)N[C@H](C)[C@@H](O)c2ccccc2)OC)C(C)C)C(C)C)C(=O)NCC)cc1` (stereo partly drawn) [C16proMMAE, Alloc-SIL-C16-MMAE] (X1-[NMeV][ξV][Dil][Dolaproine]-X2), the drug-induced weight loss entry in series [1] (HT1080 or MC38 tumor-bearing animals) was “did not show drug-induced weight loss”. For the same compound, in series [1] (MC38 tumor-bearing mice), the blood chemistry analysis entry is on record as “no signs of drug-induced liver or kidney toxicity”. Moreover, in [2] (HT1080, sub-micromolar Pd-NP), the “enhanced cytotoxicity with sub-micromolar Pd-NP” value is given as over 10 fold. Further, the IC50 in series [2] (Homo sapiens, HT-1080, 72 h, read-out: IC50 upon Pd-NP activation) amounted to 15 pM. In [2] (Pd-NP concentration 50 μM), the “level of prodrug activation based on cytotoxicity” value is over 90%. The “concentration at which cytotoxic upon activation by Pd-NP” value in series [2] (with Pd-NP) is under 0.1 nM. Further, the “turn-on capacity in cytotoxicity” value in series [2] (with vs without Pd-NP) is recorded as > 70,000 ×. Further, the “tumor growth at 2 days following the 2nd round of treatment” value in [3] (combined with Pd-NP) is “completely blocked”. The “reduction in prodrug dose required for controlling tumor growth in vivo” value in series [3] (compared to Alloc-DOX) is 50 fold. Moreover, in [4], the “impact on cell growth” value was “no detectable impact on cell growth”. Moreover, in series [5], the “release of the prodrug payload from the nanoformulation” value is reported as under 10%. Moreover, in series [6] (1 μM C16proMMAE combined with 35 μM Pd-NP), the microtubule comets entry was “complete elimination of visible comets”. The “microtubule comets (prevalence and growth speed)” value in [6] was “not substantially perturbed”. For the same compound, in series [7], the tumor growth result is recorded as “effective at slowing tumor growth” and the “tumor growth at 2 days following the 2nd round of treatment” value was “completely blocked”.

In the case of `CC[C@H](C)[C@@H]([C@@H](CC(=O)N1CCC[C@H]1[C@H](OC)[C@@H](C)C(=O)N[C@H](C)[C@@H](O)c1ccccc1)OC)N(C)C(=O)[C@@H](NC(=O)[C@@H](NC)C(C)C)C(C)C` [MMAE, monomethyl auristatin E] (H-[NMeV]V[Dil][Dolaproine]-X2), the nano-encapsulation efficiency entry in series [8] is “undetectable”. Moreover, the “toxicity at equivalent doses” value in series [9] was “severely toxic and above the maximum tolerated dose”. For the same compound, the “microtubule comets (prevalence and growth speed)” value in [6] was “complete elimination of visible comets”.

The values are drawn from US12636373B2, “Prodrugs with a tridentate self-immolative linker” (The General Hospital Corporation, priority 2018, dated 2026).
